Here are results for ten compounds from PubChem BioAssay (NCI).

SMILES strings stand for the structures.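 Grown in 96-well plates, cells were treated for 48 hours with each compound at five concentrations. Insufficient inhibition: endpoint recorded as highest concentration tested. At the TGI there is no net growth.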 Bounds are passed on as bounds.

Holding throughout (assay): NCI tumour cell line growth inhibition, 48 h
The test system of experiment [1] is U251 CNS.
Experiment [2] concerns SF-295 CNS.
Experiment [3] deals with TK-10 renal.
Experiment [4] relates to SN12C renal.
Experiment [5] relates to HCC-2998 colon.
The subject of experiment [6] is SK-MEL-2 melanoma.
Experiment [7] concerns COLO 205 colon.
In experiment [8] the test system is SF-539 CNS.
Experiment [9] deals with OVCAR-8 ovarian.
For experiment [10], the system named is SNB-75 CNS.
Experiment [11] deals with CCRF-CEM leukemia.
Experiment [12] deals with SW-620 colon.
Experiment [13] concerns SR leukemia.
Experiment [14] deals with A549 NSCLC.
Experiment [15] has as its system LOX IMVI melanoma.

For the compound `CCOc1ccc(N(CC(=O)N2CC(=O)Nc3cc(C)c(C)cc32)C(C)=O)cc1`, the TGI in [1], in [2], in experiment [3], in experiment [4], in experiment [5] and in experiment [6] was above 100 µM each time. The TGI in [7], in experiment [8], in experiment [9], in experiment [10], in experiment [11] and in [12] was above 100 µM each time. The TGI in experiment [13], in [14] and in [15] was above 100 µM in each case.
For the compound `CC(=O)NC(CCCNC(=O)N(C)N=O)C(=O)NCc1ccccc1` (stereo not given), the TGI in experiment [1], in experiment [2], in [3], in [4], in experiment [5] and in experiment [6] was above 100 µM throughout. Also, the TGI in experiment [7], in experiment [8], in [9], in experiment [10], in experiment [11] and in experiment [12] was above 100 µM each time. The TGI in experiment [14] and in [15] was above 100 µM in each case.
`O=C1CCC2(c3ccc(Cl)cc3)Nc3ccccc3N12` (stereo not given): the TGI in experiment [1], in [2], in experiment [3], in experiment [4], in [5] and in experiment [6] was above 100 µM throughout. Moreover, the TGI in experiment [7], in experiment [8], in experiment [9], in experiment [10], in [12] and in experiment [13] was above 100 µM each time. For the same compound, the TGI in [14] and in experiment [15] was above 100 µM in each case.
On to `N#C/C(c1nc2ccccc2[nH]1)=c1\s/c(=C/c2ccccc2)c(=O)n1-c1ccccc1`, for which the TGI in experiment [1], in experiment [3], in experiment [4], in experiment [5], in [6] and in experiment [7] was above 100 µM in each case. For the same compound, the TGI in [8], in experiment [9], in experiment [10], in experiment [11], in experiment [12] and in experiment [13] was above 100 µM throughout. The TGI in experiment [14] and in experiment [15] was above 100 µM throughout.
For the compound `COc1ccc(OC2(c3cc(OC)ccc3OC)OC(=O)c3ccccc32)cc1` (stereo not given), the TGI in experiment [1], in [2], in experiment [3], in experiment [4], in experiment [5] and in experiment [6] was above 100 µM in each case. The TGI in experiment [7], in [8], in experiment [9], in experiment [10], in [11] and in [12] was above 100 µM each time. The TGI in [13], in experiment [14] and in [15] was above 100 µM each time.
On to `CC(C)N(C(=O)C12C3C4C5C3C1(C(=O)O)C5C42)C(C)C` (stereo not given), for which the TGI in [1], in experiment [2], in experiment [3], in experiment [4], in experiment [5] and in experiment [6] was above 100 µM each time. The TGI in experiment [7], in experiment [8], in experiment [9], in experiment [10], in experiment [11] and in experiment [12] was above 100 µM each time. Moreover, the TGI in experiment [14] and in [15] was above 100 µM each time.
As to `Cc1cc(N(CCC#N)CCC#N)ccc1/C=C1N=C(/C=C\c2ccccc2)N(NC(=O)CC(=O)Nc2ccccc2Cl)C\1=O`, the TGI in [1], in [2], in [3], in [4], in [6] and in [7] was above 100 µM throughout. The TGI in experiment [8], in [9], in experiment [10], in experiment [11], in [12] and in [14] was above 100 µM each time. Further, the TGI in [15] is above 100 µM.
Turning to `O=c1c2ccccc2n2c(-c3ccccc3O)nnc2n1-c1ccccc1`, the TGI in [1], in [2], in [3], in experiment [4], in experiment [5] and in experiment [6] was above 100 µM throughout. For the same compound, the TGI in experiment [7], in experiment [8], in [9], in [10], in [11] and in [12] was above 100 µM in each case. The TGI in experiment [13], in experiment [14] and in [15] was above 100 µM in each case.
Consider `CC(=O)NC(CCCCNCc1ccccc1)C(=O)NCc1ccccc1` (stereo not given), for which the TGI in experiment [1], in [2], in experiment [3], in [4], in [5] and in experiment [6] was above 100 µM throughout. For the same compound, the TGI in experiment [7], in [8], in [9], in [10], in experiment [11] and in experiment [12] was above 100 µM each time. The TGI in experiment [14] and in experiment [15] was above 100 µM each time.
As for `CC(C)CC(=O)CC(C)[C@]1(CCCOCc2ccccc2)C(=O)N2CCC3(C[C@@]24CCC[C@H]41)OCCO3` (stereo not given in full), the TGI in experiment [1], in [2], in [3], in experiment [4], in [5] and in [6] was above 10 µM each time. Moreover, the TGI in experiment [7], in experiment [8], in [9], in experiment [11], in experiment [12] and in experiment [13] was above 10 µM each time.
